In patent US11780839B2, “Compounds for treating Huntington's disease” (PTC THERAPEUTICS, INC., priority 2018, dated 2023):
pIC50: −log10 of the molar value.

Tested on: Endogenous Huntingtin Protein
Test: Endogenous Huntingtin Protein Assay (ELISA-based Meso Scale Discovery electrochemiluminescence)
Type: cell-based
Details: MSD electrochemiluminescence, Table 1
In short: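 Huntingtin was captured overnight at 4 °C on plates coated with 1 μg/mL MW1 (polyQ-expanded) or MAB2166 antibody and BSA-blocked. Detection used a rabbit monoclonal and then a SULFO-TAG goat anti-rabbit antibody (0.25 μg/mL, 1 h each, room temperature). Signal was read by electrochemiluminescence.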

pIC50	Compound
≥ 7.00	CCC(C)(CC)NC1CCN(c2ncc(-c3ccc(-c4cn[nH]c4)cc3O)nn2)C1 (stereo not drawn) [Cpd 170, 2-(3-{3-[(3-methylpentan-3-yl)amino]pyrrolidin-1-yl}-1,2,4-triazin-6-yl)-5-(1H-pyrazol-4-yl)phenol]
≥ 7.00	CC1CC(NC(C)(C)C)CN1c1ncc(-c2ccc(-c3cn[nH]c3)cc2O)nn1 (stereo not drawn) [Cpd 171, 2-{3-[4-(tert-butylamino)-2-methylpyrrolidin-1-yl]-1,2,4-triazin-6-yl}-5-(1H-pyrazol-4-yl)phenol]
≥ 7.00	CC(C)(C)NC1CCN(c2ncc(-c3ccc(-c4c[nH]nc4F)cc3O)nn2)C1 (stereo not drawn) [Cpd 174, 2-{3-[3-(tert-butylamino)pyrrolidin-1-yl]-1,2,4-triazin-6-yl}-5-(3-fluoro-1H-pyrazol-4-yl)phenol]
5.52 to 6.00	Cn1ccc(-c2ccc(-c3cnc(N4CCC(NC(C)(C)C)C4)nn3)c(O)c2)n1 (stereo not drawn) [Cpd 175, 2-{3-[3-(tert-butylamino)pyrrolidin-1-yl]-1,2,4-triazin-6-yl}-5-(1-methyl-1H-pyrazol-3-yl)phenol]
5.52 to 6.00	Oc1cc(-c2cn[nH]c2)ccc1-c1cnc(N2CCC3(CCCNC3)CC2)nn1 [Cpd 180, 2-[3-(2,9-diazaspiro[5.5]undecan-9-yl)-1,2,4-triazin-6-yl]-5-(1H-pyrazol-4-yl)phenol]
< 6.30	Oc1cc(-c2cn[nH]c2)ccc1-c1cnc(N2CCC3(CCNC3)CC2)nn1 [Cpd 181, 2-[3-(2,8-diazaspiro[4.5]decan-8-yl)-1,2,4-triazin-6-yl]-5-(1H-pyrazol-4-yl)phenol]
< 6.30	CN1CCCC2(CCN(c3ncc(-c4ccc(-c5cn[nH]c5)cc4O)nn3)CC2)C1 [Cpd 182, 2-[3-(2-methyl-2,9-diazaspiro[5.5]undecan-9-yl)-1,2,4-triazin-6-yl]-5-(1H-pyrazol-4-yl)phenol]
6.30 to 7.00	CN1CCC2(CCN(c3ncc(-c4ccc(-c5cn[nH]c5)cc4O)nn3)CC2)C1 [Cpd 183]
6.30 to 7.00	CC(C)(C)NC1CCN(c2ncc(-c3ccc(-n4ccnc4)cc3O)nn2)C1 (stereo not drawn) [Cpd 187, 2-{3-[3-(tert-butylamino)pyrrolidin-l-yl]-1,2,4-triazin-6-yl}-5-(1H-imidazol-1-yl)phenol]
≥ 7.00	CC1(C)C[C@@H](Nc2ncc(-c3ccc(-c4c[nH]nc4F)cc3O)nn2)[C@@H](F)C(C)(C)N1 [Cpd 189, 5-(3-fluoro-1H-pyrazol-4-yl)-2-(3-{[(3R,4R)-3-fluoro-2,2,6,6-tetramethylpiperidin-4-yl]amino}-1,2,4-triazin-6-yl)phenol]
5.52 to 6.00	CC(C)(C)N[C@@H]1CC[C@@H]2CN(c3ncc(-c4ccc(-c5cn[nH]c5)cc4O)nn3)C[C@@H]21 [Cpd 193, 2-{3-[(3aR,4R,6aS)-4-(tert-butylamino)hexahydrocyclopenta[c]pyrrol-2(1H)-yl]-1,2,4-triazin-6-yl}-5-(1H-pyrazol-4-yl)phenol]
6.30 to 7.00	Cc1cn(-c2ccc(-c3cnc(N4CCC(NC(C)(C)C)C4)nn3)c(O)c2)cn1 (stereo not drawn) [Cpd 197, 2-{3-[3-(tert-butylamino)pyrrolidin-l-yl]-1,2,4-triazin-6-yl}-5-(4-methyl-1H-imidazol-1-yl)phenol]
≥ 7.00	Cn1cc(-c2ccc(-c3cnc(NC4CC(C)(C)NC(C)(C)C4)nn3)c(O)c2)cn1 [Cpd 199, 5-(1-methyl-1H-pyrazol-4-yl)-2-{3-[(2,2,6,6-tetramethylpiperidin-4-yl)amino]-1,2,4-triazin-6-yl}phenol]
≥ 7.00	Cn1cc(-c2ccc(-c3cnc(N[C@H]4CC(C)(C)NC(C)(C)[C@H]4F)nn3)c(O)c2)cn1 [Cpd 201, 2-(3-{[(3S,4S)-3-fluoro-2,2,6,6-tetramethylpiperidin-4-yl]amino}-1,2,4-triazin-6-yl)-5-(1-methyl-1H-pyrazol-4-yl)phenol]
≥ 7.00	Cn1cc(-c2ccc(-c3cnc(N4CCC(NC(C)(C)C)C4)nn3)c(O)c2)cn1 (stereo not drawn) [Cpd 202, 2-{3-[3-(tert-butylamino)pyrrolidin-l-yl]-1,2,4-triazin-6-yl}-5-(1-methyl-1H-pyrazol-4-yl)phenol]
≥ 7.00	CC(C)NC1CCN(c2ncc(-c3ccc(-c4cnn(C)c4)cc3O)nn2)C1 (stereo not drawn) [Cpd 203]
≥ 7.00	CC(C)(C)NC1CCN(c2ncc(-c3ccc(-n4nccn4)cc3O)nn2)C1 (stereo not drawn) [Cpd 204, 2-{3-[3-(tert-butylamino)pyrrolidin-l-yl]-1,2,4-triazin-6-yl}-5-(2H-1,2,3-triazol-2-yl)phenol]
≥ 7.00	CNC1CCN(c2ncc(-c3ccc(-c4cnn(C)c4)cc3O)nn2)C1 (stereo not drawn) [Cpd 205, 2-{3-[3-(methylamino)pyrrolidin-l-yl]-1,2,4-triazin-6-yl}-5-(1-methyl-1H-pyrazol-4-yl)phenol]
5.52 to 6.00	CC(C)(C)NC1CCN(c2ncc(-c3ccc(-c4cn[nH]c4)cc3O)nn2)CC1 [Cpd 206, 2-{3-[4-(tert-butylamino)piperidin-l-yl]-1,2,4-triazin-6-yl}-5-(1H-pyrazol-4-yl)phenol]
5.52 to 6.00	CC(C)(C)NC1CCN(c2ncc(-c3ccc(-c4ccn5nncc5c4)cc3O)nn2)C1 (stereo not drawn) [Cpd 207, 2-{3-[3-(tert-butylamino)pyrrolidin-l-yl]-1,2,4-triazin-6-yl}-5-([1,2,3]triazolo[1,5-a]pyridin-5-yl)phenol]

Compound	pIC50
Cc1nc2c(C)cc(-c3ccc(-c4cnc(N(C)C5CC(C)(C)NC(C)(C)C5)nn4)c(O)c3)nc2o1 [Cpd 169, 5-(2,7-dimethyl[1,3]oxazolo[5,4-b]pyridin-5-yl)-2-{3-[methyl(2,2,6,6-tetramethylpiperidin-4-yl)amino]-1,2,4-triazin-6-yl}phenol]	≥ 7.00
CN(c1ncc(-c2ccc(-n3ncc(CO)n3)cc2O)nn1)C1CC(C)(C)NC(C)(C)C1 [Cpd 172, 5-[4-(hydroxymethyl)-2H-1,2,3-triazol-2-yl]-2-{3-[methyl(2,2,6,6-tetramethylpiperidin-4-yl)amino]-1,2,4-triazin-6-yl}phenol]	≥ 7.00
CN(c1ncc(-c2ccc(-c3ccc4nnn(C)c4n3)cc2O)nn1)C1CC(C)(C)NC(C)(C)C1 [Cpd 173]	≥ 7.00
CN(c1ncc(-c2ccc(-c3cnc4c(cnn4C)c3)cc2O)nn1)C1CC(C)(C)NC(C)(C)C1 [Cpd 176, 5-(1-methyl-1H-pyrazolo[3,4-b]pyridin-5-yl)-2-{3-[methyl(2,2,6,6-tetramethylpiperidin-4-yl)amino]-1,2,4-triazin-6-yl}phenol]	≥ 7.00
CN(c1ncc(-c2ccc(-c3ccc4c(cnn4C)c3)cc2O)nn1)C1CC(C)(C)NC(C)(C)C1 [Cpd 177, 5-(1-methyl-1H-indazol-5-yl)-2-{3-[methyl(2,2,6,6-tetramethylpiperidin-4-yl)amino]-1,2,4-triazin-6-yl}phenol]	≥ 7.00
CN(c1ncc(-c2ccc(-c3ccc4nnnn4n3)cc2O)nn1)C1CC(C)(C)NC(C)(C)C1 [Cpd 178, 2-{3-[methyl(2,2,6,6-tetramethylpiperidin-4-yl)amino]-1,2,4-triazin-6-yl}-5-(tetrazolo[1,5-b]pyridazin-6-yl)phenol]	≥ 7.00
CN(c1ncc(-c2ccc(-c3cc(CO)ncn3)cc2O)nn1)C1CC(C)(C)NC(C)(C)C1 [Cpd 179, 5-[6-(hydroxymethyl)pyrimidin-4-yl]-2-{3-[methyl(2,2,6,6-tetramethylpiperidin-4-yl)amino]-1,2,4-triazin-6-yl}phenol]	≥ 7.00
CN(c1ncc(-c2ccc(-c3cc4cn[nH]c4cn3)cc2O)nn1)C1CC(C)(C)NC(C)(C)C1 [Cpd 184, 2-{3-[methyl(2,2,6,6-tetramethylpiperidin-4-yl)amino]-1,2,4-triazin-6-yl}-5-(1H-pyrazolo[3,4-c]pyridin-5-yl)phenol]	≥ 7.00
CN(c1ncc(-c2ccc(-c3ccc4ncccc4c3)cc2O)nn1)C1CC(C)(C)NC(C)(C)C1 [Cpd 185, 2-{3-[methyl(2,2,6,6-tetramethylpiperidin-4-yl)amino]-1,2,4-triazin-6-yl}-5-(quinolin-6-yl)phenol]	≥ 7.00
CN(c1ncc(-c2ccc(-c3ccc4c(nnn4C)n3)cc2O)nn1)C1CC(C)(C)NC(C)(C)C1 [Cpd 186, 2-{3-[methyl(2,2,6,6-tetramethylpiperidin-4-yl)amino]-1,2,4-triazin-6-yl}-5-(1-methyl-1H-[1,2,3]triazolo[4,5-b]pyridin-5-yl)phenol]	≥ 7.00
CN(c1ncc(-c2ccc(-c3ccc4c(c3)OCO4)cc2O)nn1)C1CC(C)(C)NC(C)(C)C1 [Cpd 188, 5-(2H-1,3-benzodioxo1-5-yl)-2-{3-[methyl(2,2,6,6-tetramethylpiperidin-4-yl)amino]-1,2,4-triazin-6-yl}phenol]	≥ 7.00
CN(c1ncc(-c2ccc(-c3cnc4[nH]ncc4n3)cc2O)nn1)C1CC(C)(C)NC(C)(C)C1 [Cpd 194, 2-{3-[methyl(2,2,6,6-tetramethylpiperidin-4-yl)amino]-1,2,4-triazin-6-yl}-5-(1H-pyrazolo[3,4-b]pyrazin-5-yl)phenol]	≥ 7.00
CN(c1ncc(-c2ccc(-c3ncc4[nH]ncc4n3)cc2O)nn1)C1CC(C)(C)NC(C)(C)C1 [Cpd 195, 2-{3-[methyl(2,2,6,6-tetramethylpiperidin-4-yl)amino]-1,2,4-triazin-6-yl}-5-(1H-pyrazolo[4,3-d]pyrimidin-5-yl)phenol]	≥ 7.00
CN(c1cnc(-c2ccc(-c3cnn(C)c3)cc2O)nn1)C1CC(C)(C)NC(C)(C)C1 [Cpd 196, 5-(1-methyl-1H-pyrazol-4-yl)-2-{6-[methyl(2,2,6,6-tetramethylpiperidin-4-yl)amino]-1,2,4-triazin-3-yl}phenol]	≥ 7.00
CN(c1ncc(-c2ccc(-c3ccc4c(cnn4C)n3)cc2O)nn1)C1CC(C)(C)NC(C)(C)C1 [Cpd 198, 5-(1-methyl-1H-pyrazolo[4,3-b]pyridin-5-yl)-2-{3-[methyl(2,2,6,6-tetramethylpiperidin-4-yl)amino]-1,2,4-triazin-6-yl}phenol]	≥ 7.00
CN(c1ncc(-c2ccc(-c3ccc4c(c3)nnn4C)cc2O)nn1)C1CC(C)(C)NC(C)(C)C1 [Cpd 200, 5-(1-methyl-1H-benzotriazol-5-yl)-2-{3-[methyl(2,2,6,6-tetramethylpiperidin-4-yl)amino]-1,2,4-triazin-6-yl}phenol]	≥ 7.00
